# Values quoted from earlier work as cited in US6420379B1, “Alkynyl-substituted camptothecins and process for their preparation” (Pharmacia & Upjohn S.p.A., priority 1997, dated 2002).
# Assays:
# human albumin = human albumin (Homo sapiens, UniProt P02768); conditions: presence of biologically relevant levels of human albumin
# [1] = 2 hours after drug addition to human plasma
# human albumin, sequence (P02768 25-609): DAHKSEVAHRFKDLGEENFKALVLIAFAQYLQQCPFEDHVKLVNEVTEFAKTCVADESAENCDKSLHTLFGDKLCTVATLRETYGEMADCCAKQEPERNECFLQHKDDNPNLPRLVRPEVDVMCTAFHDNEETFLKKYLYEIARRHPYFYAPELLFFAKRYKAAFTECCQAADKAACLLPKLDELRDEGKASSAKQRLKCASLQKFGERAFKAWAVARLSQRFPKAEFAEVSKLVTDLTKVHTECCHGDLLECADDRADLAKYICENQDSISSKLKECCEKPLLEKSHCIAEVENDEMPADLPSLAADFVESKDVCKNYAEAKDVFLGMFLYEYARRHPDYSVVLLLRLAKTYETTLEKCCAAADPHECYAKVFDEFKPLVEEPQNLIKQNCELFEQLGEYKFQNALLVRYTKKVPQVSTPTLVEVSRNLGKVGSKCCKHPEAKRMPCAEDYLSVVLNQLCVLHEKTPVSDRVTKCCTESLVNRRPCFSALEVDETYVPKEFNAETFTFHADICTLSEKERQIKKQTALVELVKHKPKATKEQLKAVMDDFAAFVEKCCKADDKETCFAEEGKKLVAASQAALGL
smiles,measurement,setting,value
CC[C@@]1(O)C(=O)OCc2c1cc1n(c2=O)Cc2cc3ccccc3nc2-1 [camptothecin],half-life of the biologically active form,human albumin,about 12 min.
same,percentage of the drug converted to camptothecin carboxylate,[1],greater than 99%
